Data: US20080031887A1, “Conjugates for inducing targeted immune responses and methods of making and using same” (priority 2006, published 2008)

How the values were obtained:
Type in all cases: in vivo
[1] = test system: TUBO cells; experiment: TUBO tumors implanted s.c. in Balb/c (non-tolerant) mice, treatment from day 10; settings: 20 μg/injection three times a week for three weeks; for antitumor effect (tumor rejection / tumor growth): i.t. injection, FIG. 1A; for antitumor effect: s.c. injection in the opposite flank, data not shown
Procedure: (§1) FIG. 1 contains graphic representations illustrating that intratumoral injections of CpG-ODN induce rejection of tumors in Balb/c, BALB-neuT and A2×neu mice. Balb/c and BALB-neuT were implanted s.c. with 10^6 TUBO cells, and A2×neu mice were implanted s.c. with 10^6 N202.A2 cells on day zero. On day 10, animals started treatment with i.t. injections of TLR-ligands three times a week (20 μg/injection) for three weeks. […]
(§2) For these experiments, Balb/c (non-tolerant) and BALB-neuT (tolerant) mice implanted with TUBO cells and A2×neu mice implanted with N202.A2 cells were used (it is important to remember that TUBO cells are tumorigenic in Balb/c and BALB-neuT mice, while N202.A2 cells are tumorigenic only in A2×neu mice but not in A2×FVB mice). It is well established that the injection of these ligands results in the activation of DCs, monocytes/macrophages, and B cells, and as a consequence of the activation of these cells, NK cell and T cell responses are stimulated. […] Balb/c and BALB-neuT mice were implanted s.c. with 10^6 TUBO cells, and A2×neu mice were implanted s.c. with 10^6 N202.A2 cells on day zero. On day 10, animals started treatment with s.c. injections of anti-CD40 mAb, Poly I:C, LPS, flagellin, imiquimod, CpG-ODN and control-ODN (as a control) in the opposite flank from where the tumor was injected, three times a week (20 μg/injection) for three weeks. […] It was decided to test whether intratumoral (i.t.) injection of TLR ligands would result in the induction of an antitumor response. The effect of i.t. injections of anti-CD40 mAb, Poly I:C, LPS, flagellin, imiquimod, CpG-ODN and control-ODN (as a control) three times a week (20 μg/injection) for three weeks was tested. […]
Evaluation of anti-neu-CpG-ODN (cleavable bond) vs. anti-neu-CpG-ODN (non-cleavable bond). In determining the effectiveness of the conjugates of the present invention, the antitumor effects of anti-neu-CpG-ODN generated with a cleavable bond or non-cleavable bond were evaluated. Anti-neu-CpG-ODN generated with a non-cleavable bond was produced by the reaction pathway shown in FIG. 7A and contained a hydrazone linkage between the Anti-neu antibody and the CpG-ODN. Anti-neu-CpG-ODN generated with a cleavable bond was produced by the reaction pathway shown in FIG. 7B and contained a disulfide cleavable linkage. TUBO cells (1×10^6) were implanted s.c. on day zero on Balb/c. Starting on day 10, animals were injected intratumorally with 30 μg/injection of each of the anti-neu-CpG-ODN molecules three times a week for three weeks.

[2] = test system: TUBO cells; experiment: TUBO tumors implanted s.c. in BALB-neuT (tolerant) mice, treatment from day 10; settings: 20 μg/injection three times a week for three weeks; for antitumor effect: s.c. injection in the opposite flank, data not shown; for antitumor effect (tumor rejection / tumor growth): i.t. injection, FIG. 1B
Procedure: as §1, §2

[3] = test system: N202.A2 cells; experiment: N202.A2 tumors implanted s.c. in A2×neu mice, treatment with TLR ligands from day 10; settings: 20 μg/injection three times a week for three weeks; for antitumor effect: s.c. injection in the opposite flank, data not shown; for antitumor effect (tumor rejection / tumor growth): i.t. injection, FIG. 1C
Procedure: FIG. 1 contains graphic representations illustrating that intratumoral injections of CpG-ODN induce rejection of tumors in Balb/c, BALB-neuT and A2×neu mice. Balb/c and BALB-neuT were implanted s.c. with 10^6 TUBO cells, and A2×neu mice were implanted s.c. with 10^6 N202.A2 cells on day zero. On day 10, animals started treatment with i.t. injections of TLR-ligands three times a week (20 μg/injection) for three weeks.
For these experiments, Balb/c (non-tolerant) and BALB-neuT (tolerant) mice implanted with TUBO cells and A2×neu mice implanted with N202.A2 cells were used (it is important to remember that TUBO cells are tumorigenic in Balb/c and BALB-neuT mice, while N202.A2 cells are tumorigenic only in A2×neu mice but not in A2×FVB mice). It is well established that the injection of these ligands results in the activation of DCs, monocytes/macrophages, and B cells, and as a consequence of the activation of these cells, NK cell and T cell responses are stimulated. […] Balb/c and BALB-neuT mice were implanted s.c. with 10^6 TUBO cells, and A2×neu mice were implanted s.c. with 10^6 N202.A2 cells on day zero. On day 10, animals started treatment with s.c. injections of anti-CD40 mAb, Poly I:C, LPS, flagellin, imiquimod, CpG-ODN and control-ODN (as a control) in the opposite flank from where the tumor was injected, three times a week (20 μg/injection) for three weeks. […] It was decided to test whether intratumoral (i.t.) injection of TLR ligands would result in the induction of an antitumor response. The effect of i.t. injections of anti-CD40 mAb, Poly I:C, LPS, flagellin, imiquimod, CpG-ODN and control-ODN (as a control) three times a week (20 μg/injection) for three weeks was tested.

Row | Compound | antitumor effect (tumor rejection / tumor growth) [1] | antitumor effect [1] | antitumor effect [2] | antitumor effect [3] | antitumor effect (tumor rejection / tumor growth) [2] | antitumor effect (tumor rejection / tumor growth) [3]
1 | Poly I:C | induced the rejection of tumors | no antitumor effect | no antitumor effect | no antitumor effect | – | –
2 | CC(C)Cn1cnc2c(N)nc3ccccc3c21 [imiquimod] | did not have any effect in controlling the tumor growth | no antitumor effect | no antitumor effect | no antitumor effect | did not have any effect in controlling the tumor growth | did not have any effect in controlling the tumor growth
3 | flagellin | did not have any effect in controlling the tumor growth | no antitumor effect | no antitumor effect | no antitumor effect | did not have any effect in controlling the tumor growth | did not have any effect in controlling the tumor growth
